Reference: patent publication US10172927B2, “Detection/measurement of malaria infection disease utilizing natural immunity by hemozoin induction, screening of preventative or therapeutic medicine for malaria infection disease, and regulation of natural immunity induction” (Osaka University, priority 2004, dated 2019)

System: FL-DCs stimulated with HZ
Assay: Chloroquine effect on HZ-induced cytokine production by FL-DCs
Assay type: cell-based, mouse
Details: 30 μM HZ, CQ 10 μM, 24 hours; P<0.05 HZ vs. HZ+CQ
Experimental: Single cell suspensions of spleen cells (5×10^5 cells/well) were cultured in complete RPMI 1640 medium supplemented with 10% FCS for 48 hours. F1t3 ligand-induced bone marrow-derived DCs (FL-DCs) (1×10^5 cells/well) were generated by culturing bone marrow cells with F1t3 ligand (100 ng/ml; Pepro Tech) for eight to nine days in DMEM medium containing 10% FCS. The cells were stimulated in the presence of the indicated stimuli and supernatants were collected for cytokine ELISA.
Murine TNF-α, IL-12p40, MCP-1, IL-6 (R & D Systems), and IFNα (PBL Bio. Lab) were measured either from the supernatants or the sera by ELISA according to the manufacturer's instructions.
The anti-malarial formulation, chloroquine (CQ), has been reported to inhibit proinflammatory responses during malaria infection in addition to endosome/lysosome maturations and malarial hemozoin crystal formations, whereas the exact mechanism of anti-malarial effects of CQ is still under debate (Int. J. Parasitol. 32: 1645-1653, 2002; Life Sci. 74: 1957-1972, 2004). […] To examine the effect of CQ to HZ-induced proinflammatory responses, FL-DCs were stimulated with HZ in the presence of CQ. […]
(a) To detect DNA contamination, HZ was run on an agarose gel and stained with ethidium bromide. […] Then the supernatants were collected and measured for TNFα or IL-12p40 by ELISA. […] “n.d.” means “not detected”.

Q: Which “HZ-induced TNFα and IL-12p40 productions by FL-DCs in the presence of CQ” value does the source give for `CCN(CC)CCCC(C)Nc1ccnc2cc(Cl)ccc12` (stereo not shown) [CQ, chloroquine] here?
A: diminished
